Molecules are shown by their SMILES. Where a name gives a salt, the structure may show the parent alone.

The first data set can be described thus: Color Developer Test Method: solvent resistance of the color image, salad oil (Mds). The class given is physicochemical. The following applies: colored portion coated with salad oil, wiped, left standing 0.5 hour; Macbeth RD-914. How it is done:
(§1) Thermosensitive recording paper sheet is prepared by a process which will be described below.
(§2) The above-described composition is pulverized with a paint shaker to an average particle diameter of about 1 μm.
(§3) The above-described composition is pulverized with a paint shaker to an average particle diameter of not larger than 1 μm.
(§4) The above-described composition is pulverized with a paint shaker to an average particle article diameter of not larger than 1 μm.
(§5) A coating liquid is obtained by mixing 60 parts of the dispersion A, 240 parts of the dispersion B, 80 parts of the dispersion C, and 90 parts of 10% aqueous polyvinyl alcohol solution under stirring. The coating liquid thus obtained is applied to the support so that the amount of the coating after drying would be 8.0 g/m^2 to form a thermosensitive color image-forming layer, and thereby to obtain a thermosensitive recording paper.
(§6) The sample thus obtained is printed with a coloring tester (THPMD; a product of Ohkura Electric Co., Ltd.) under conditions comprising a printing voltage of 21.7 V and printing pulse of 1.0 ms. The color density of the printed parts is determined with a Macbeth Reflection Color Density Tester RD-914 (a product of Macbeth).
(§7) The colored portion of the thermosensitive recording material thus obtained in (5) is coated with dioctyl phthalate or salad oil, which is then removed by wiping with Klinex, followed by leaving it for standing for 0.5 hour and measuring the density of the printed parts is determined with a Macbeth Reflection Color Density Tester RD-914 (a product of Macbeth).
(§8) The solvent resistance of the color image formed by using the color developer can be evaluated based on the Macbeth density (hereinafter referred to as “Mdd”) of 0.2 or higher, preferably 0.4 or higher according to the Color Developer Test Method as stated above wherein dioctyl phthalate is used. The solvent resistance of the color image formed using the color developer can be evaluated based on the Macbeth density (hereinafter referred to as “Mds”) of 0.5 or higher, preferably 0.6 or higher according to the Color Developer Test Method as stated above wherein salad oil is used.
For `Cc1ccc(S(=O)(=O)NC(=O)Nc2cccc3c(NC(=O)NS(=O)(=O)c4ccc(C)cc4)cccc23)cc1` [1,5-bis(p-toluenesulfonylaminocarbonylamino)naphthalene], the “Mds (Macbeth density of the printed part after coating with salad oil)” value is reported as 1.05. With `O=S(=O)(c1ccccc1)c1ccc(O)c(S(=O)(=O)c2ccccc2)c1` [2,4-bis(phenylsulfonyl)phenol], the “Mds (Macbeth density of the printed part after coating with salad oil)” value was 0.6.

Consider `O=C(Nc1ccc(Cc2ccc(NC(=O)NS(=O)(=O)c3cccc4ccccc34)cc2)cc1)NS(=O)(=O)c1cccc2ccccc12` [4,4′-bis(1-naphthalenesulfonylaminocarbonylamino) diphenyl methane], for which the “Mds (Macbeth density of the printed part after coating with salad oil)” value is recorded as 0.5. Consider `Cc1ccc(S(=O)(=O)NC(=O)Nc2cccc3cccc(NC(=O)NS(=O)(=O)c4ccc(C)cc4)c23)cc1` [1,8-bis(p-toluenesulfonylaminocarbonylamino)naphthalene], for which the “Mds (Macbeth density of the printed part after coating with salad oil)” value is 0.73. As for `Cc1ccc(S(=O)(=O)NC(=O)Nc2cccc(NC(=O)NS(=O)(=O)c3ccc(C)cc3)c2)cc1` [1,3-bis(p-toluenesulfonylaminocarbonylamino)benzene], the “Mds (Macbeth density of the printed part after coating with salad oil)” value was determined as 1.2. On to `Cc1ccc(S(=O)(=O)NC(=O)Nc2ccc(NC(=O)NS(=O)(=O)c3ccc(C)cc3)cc2)cc1` [1,4-bis(p-toluenesulfonylaminocarbonylamino)benzene], for which the “Mds (Macbeth density of the printed part after coating with salad oil)” value was 0.84.

Another data set is described as follows: log P, OECD Chemical Test Guideline No. 117, partition coefficient. The following applies: OECD Guideline No. 117.
Excerpt: The log P in the present invention is a value determined according to OECD Test, Chemical Test Guideline No. 117, Partition Coefficient; edited by Chemical Product Examination Association). The log P is the logarithm of the partition coefficient P. The higher the value of the partition coefficient, the higher the hydrophobicity; and the lower thereof, the higher the hydrophilicity.
Regarding `O=C(CCCCC(=O)OCc1ccccc1Cl)OCc1ccccc1Cl` [di-o-chlorobenzyl adipate], the “log P” value is recorded as 5.8. Take `C=CCOc1ccc(S(=O)(=O)c2ccc(OCC=C)cc2)cc1` [4,4′-diallyloxydiphenylsulfone]: the “log P” value was 3.3.

Still in this data set, the particulars now being: n-octanol/water.
`c1ccc(Cc2ccc(-c3ccccc3)cc2)cc1` [p-benzylbiphenyl] showed a chromatographic logP of 6.3. Regarding `Cc1cccc(OCCOc2cccc(C)c2)c1` [1,2-bis(m-tolyloxy)ethane], the chromatographic logP turned out to be 5.

Regarding `Cc1ccc(OS(=O)(=O)c2c(C)cc(C)cc2C)cc1` [p-tolyl mesitylenesulfonate], the chromatographic logP stood at 3.1.

In turn, `CC(=O)CC(=O)Nc1ccccc1Cl` [o-chloroacetoacetoanilide] had a chromatographic logP of 0.2. For `O=C(Oc1ccccc1)c1ccc2ccccc2c1O` [phenyl 1-hydroxy-2-naphthoate], the chromatographic logP was 5.1. On to `O=C(OCc1ccccc1)c1ccc(C(=O)OCc2ccccc2)cc1` [dibenzyl terephthalate], for which the chromatographic logP came out at 5.7.

Take `c1ccc(OCCOc2ccc3ccccc3c2)cc1` [1-phenoxy-2-β-naphthoxyethane]: the chromatographic logP turned out to be 5.2. With `COc1ccc(OCCOCCOc2ccc(OC)cc2)cc1` [bis(2-(4-methoxyphenoxy)ethyl) ether], the chromatographic logP is 2.9. The same measure, in the same setting: under `Cc1ccc(Oc2ccc(Oc3ccc(C)cc3)cc2)cc1` [1,4-bis(p-tolyloxy)benzene] stands 3.1.

Staying with this data set, now noted: n-octanol/water (OECD Test Guideline 117, HPLC method).
The compound `Cc1ccc(S(=O)(=O)Oc2ccccc2)cc1` [phenyl p-toluenesulfonate] had a chromatographic logP of 3.1.

In turn, `O=C(OCc1ccccc1)C(=O)OCc1ccccc1` [dibenzyl oxalate] had a chromatographic logP of 3.1. Same read-out and setting: then `O=C(Oc1ccccc1)c1ccc2ccccc2c1O` [phenyl 1-hydroxy-2-naphthoate], with 5.1; and `O=S(=O)(c1ccccc1)c1ccccc1` [diphenylsulfone], with 1.5; and `c1ccc(OCCOc2ccccc2)cc1` [1,2-diphenoxyethane], with 3.6.

Staying with this data set, now noted: octanol/water.
The compound `c1ccc(-c2cccc(-c3ccccc3)c2)cc1` [m-terphenyl] registered a chromatographic logP of 6.16. `Cc1ccc(CCc2ccc(C)c(C)c2)cc1C` [1,2-bis(3,4-dimethylphenyl)ethane] yielded a chromatographic logP of 7.8.

The next data set in a line: Color Developer Test Method: solvent resistance of the color image, dioctyl phthalate (Mdd). It counts as physicochemical. The following applies: colored portion coated with dioctyl phthalate, wiped, left standing 0.5 hour; Macbeth RD-914. On the procedure: as §1, §2, §3, §4, §5, §6, §7, §8
For `Cc1ccc(S(=O)(=O)NC(=O)Nc2ccc(Oc3ccc(NC(=O)NS(=O)(=O)c4ccc(C)cc4)cc3)cc2)cc1` [4,4′-bis(p-toluenesulfonylaminocarbonylamino)diphenyl ether], the “Mdd (Macbeth density of the printed part after coating with dioctyl phthalate)” value stood at 1.0. Turning to `Cc1ccc(S(=O)(=O)NC(=O)Nc2ccc(S(=O)(=O)c3ccc(NC(=O)NS(=O)(=O)c4ccc(C)cc4)cc3)cc2)cc1` [4,4′-bis(p-toluenesulfonylaminocarbonylamino)diphenylsulfone], the “Mdd (Macbeth density of the printed part after coating with dioctyl phthalate)” value worked out at 0.81. Turning to `Cc1ccc(S(=O)(=O)NC(=O)Nc2ccc(Oc3cccc(Oc4ccc(NC(=O)NS(=O)(=O)c5ccc(C)cc5)cc4)c3)cc2)cc1` [1,3-bis(4′-(p-toluenesulfonylaminocarbonylamino)phenyloxy)benzene], the “Mdd (Macbeth density of the printed part after coating with dioctyl phthalate)” value came out at 1.0. With `Cc1ccccc1S(=O)(=O)NC(=O)Nc1ccc(Cc2ccc(NC(=O)NS(=O)(=O)c3ccccc3C)cc2)cc1` [4,4′-bis(o-toluenesulfonylaminocarbonylamino)diphenyl methane], the “Mdd (Macbeth density of the printed part after coating with dioctyl phthalate)” value amounted to 1.0. The same measure, in the same setting: under `O=C(Nc1ccc(Cc2ccc(NC(=O)NS(=O)(=O)c3ccccc3)cc2)cc1)NS(=O)(=O)c1ccccc1` [4,4′-bis(benzenesulfonylaminocarbonylamino)diphenyl methane] stands 0.8; under `Cc1ccc(S(=O)(=O)NC(=O)Nc2cccc(S(=O)(=O)c3cccc(NC(=O)NS(=O)(=O)c4ccc(C)cc4)c3)c2)cc1` [3,3′-bis(p-toluenesulfonylaminocarbonylamino)diphenylsulfone], 0.63; under `CC(C)(c1ccc(O)cc1)c1ccc(O)cc1` [2,2-bis(4-hydroxyphenyl)propane, reference compound], 0.1. With `Cc1ccc(S(=O)(=O)NC(=O)Nc2ccc(Sc3ccc(NC(=O)NS(=O)(=O)c4ccc(C)cc4)cc3)cc2)cc1` [4,4′-bis(p-toluenesulfonylaminocarbonylamino)diphenyl sulfide], the “Mdd (Macbeth density of the printed part after coating with dioctyl phthalate)” value is recorded as 0.96.

`Cc1ccc(S(=O)(=O)NC(=O)Nc2ccc(Cc3ccc(NC(=O)NS(=O)(=O)c4ccc(C)cc4)cc3)cc2)cc1` [4,4′-bis(p-toluenesulfonylaminocarbonylamino)diphenylmethane]: the “Mdd (Macbeth density of the printed part after coating with dioctyl phthalate)” value amounted to 1.0. Take `Cc1ccc(S(=O)(=O)NC(=O)Nc2ccc(Oc3cccc(NC(=O)NS(=O)(=O)c4ccc(C)cc4)c3)cc2)cc1` [3,4′-bis(p-toluenesulfonylaminocarbonylamino)diphenyl ether]: the “Mdd (Macbeth density of the printed part after coating with dioctyl phthalate)” value amounted to 0.93. As for `COc1ccc(OCCOc2ccc(C(=O)O)c(O)c2)cc1` [4-(2-(p-methoxyphenyloxy)ethyloxy)salicylic acid], the “Mdd (Macbeth density of the printed part after coating with dioctyl phthalate)” value was 0.5.

The data set is the same for the next values; noted with them: colored portion coated with dioctyl phthalate, wiped, left standing 0.5 hour; Macbeth RD-914; listed as 3,4′-bis(p-toluenesulfonylaminocarbonylamino)diphenyl ether.
Take `Cc1ccc(S(=O)(=O)NC(=O)Nc2ccc(Oc3cccc(NC(=O)NS(=O)(=O)c4ccc(C)cc4)c3)cc2)cc1` [3,4′-bis(p-toluenesulfonylaminocarbonylamino)diphenyl ether]: the “Mdd (Macbeth density of the printed part after coating with dioctyl phthalate)” value worked out at 1.0.

Broadly, the log P is the decadic logarithm of the partition coefficient of the neutral form, usually between octanol and water. Lower therefore signals a more hydrophilic compound. For orientation: chromatographic logP means a lipophilicity value derived from retention on a column. A lower chromatographic logP goes with lower lipophilicity.

Source of the values: US6335306B1, “Thermosensitive recording material of heat fixing type and method of fixing the same” (Oji Paper Co., Ltd., priority 1998, dated 2002).
